Laboratory results from the NIST ThermoML archive (doi:10.1016/j.jct.2015.08.031).
Numbers after ± are expanded uncertainties.

Assay: molar heat capacity at constant pressure
Conditions: 101.33 kPa, Crystal, relaxation calorimetry

[Al+3].[Al+3].[O-2].[O-2].[O-2] [aluminum oxide (Al2O3)]
Conditions	molar heat capacity at constant pressure [J/K/mol]
1.93 K	7.666e-05 ± 6.6e-06
2.15 K	9.655e-05 ± 7.9e-06
2.39 K	0.0001341 ± 1e-05
2.65 K	0.0001785 ± 1.3e-05
2.95 K	0.0002464 ± 1.8e-05
3.28 K	0.0003342 ± 2.4e-05
3.64 K	0.0004613 ± 3.3e-05
4.04 K	0.0006149 ± 4.4e-05
4.49 K	0.0008379 ± 5.9e-05
4.98 K	0.001136 ± 8e-05
5.523 K	0.001541 ± 0.00011
6.13 K	0.00216 ± 0.00015
6.8 K	0.002926 ± 0.00021
7.54 K	0.004006 ± 0.00028
8.36 K	0.005388 ± 0.00038
9.27 K	0.007325 ± 0.00051
10.28 K	0.009979 ± 0.0007
11.37 K	0.0134 ± 0.00094
12.61 K	0.01843 ± 0.0013
13.99 K	0.02532 ± 0.0018
15.52 K	0.03431 ± 0.0024
17.22 K	0.04685 ± 0.0033
19.12 K	0.06451 ± 0.0045
21.23 K	0.08864 ± 0.0036
23.58 K	0.1229 ± 0.005
26.17 K	0.1719 ± 0.007
29.08 K	0.2396 ± 0.0097
32.22 K	0.3344 ± 0.014
35.73 K	0.4743 ± 0.019
39.62 K	0.6761 ± 0.027
43.94 K	0.9644 ± 0.039
48.73 K	1.379 ± 0.056
54.06 K	1.968 ± 0.08
59.98 K	2.789 ± 0.11
66.54 K	3.91 ± 0.16
73.85 K	5.425 ± 0.22
81.95 K	7.444 ± 0.3
90.93 K	9.991 ± 0.41
100.91 K	13.15 ± 0.53
111.18 K	16.79 ± 0.68
121.13 K	20.54 ± 0.83
131.17 K	24.48 ± 0.99
141.28 K	28.54 ± 1.2
151.4 K	32.54 ± 1.3
161.47 K	36.62 ± 1.5
171.56 K	40.51 ± 1.6
181.6 K	44.37 ± 1.8
191.67 K	48.13 ± 2
201.78 K	51.63 ± 2.1
211.87 K	55.13 ± 2.2
221.94 K	58.53 ± 2.4
232 K	61.73 ± 2.5
241.98 K	64.63 ± 2.6
252.05 K	67.6 ± 2.7
262.17 K	70.28 ± 2.9
272.22 K	72.77 ± 3
282.18 K	75.28 ± 3.1
292.31 K	77.45 ± 3.1
297.27 K	78.3 ± 3.2
302.27 K	79.34 ± 3.2
302.29 K	79.63 ± 3.2
307.31 K	80.41 ± 3.3
312.34 K	81.4 ± 3.3
317.3 K	82.41 ± 3.3
322.32 K	83.31 ± 3.4
327.42 K	84.26 ± 3.4
332.46 K	85.09 ± 3.5
337.41 K	85.84 ± 3.5
342.44 K	86.73 ± 3.5
347.58 K	87.72 ± 3.6
352.67 K	88.65 ± 3.6
357.7 K	89.47 ± 3.6
362.73 K	90.24 ± 3.7
367.75 K	90.97 ± 3.7
372.77 K	91.84 ± 3.7
377.77 K	92.8 ± 3.8
382.79 K	93.27 ± 3.8
387.76 K	94.14 ± 3.8
392.76 K	95.04 ± 3.9
397.77 K	95.81 ± 3.9

O=C(O)c1ccccc1 [benzoic acid]
Conditions	molar heat capacity at constant pressure [J/K/mol]
1.93 K	0.01333 ± 0.0011
2.15 K	0.01845 ± 0.0015
2.39 K	0.0255 ± 0.0019
2.66 K	0.03397 ± 0.0025
2.96 K	0.04707 ± 0.0034
3.29 K	0.06572 ± 0.0047
3.65 K	0.08963 ± 0.0064
4.05 K	0.1233 ± 0.0088
4.49 K	0.1714 ± 0.012
4.99 K	0.2363 ± 0.017
5.54 K	0.3302 ± 0.023
6.14 K	0.4631 ± 0.033
6.81 K	0.6487 ± 0.046
7.56 K	0.9052 ± 0.064
8.38 K	1.253 ± 0.088
9.29 K	1.714 ± 0.12
10.26 K	2.266 ± 0.16
11.36 K	3.021 ± 0.21
12.61 K	3.971 ± 0.28
13.99 K	5.144 ± 0.36
15.52 K	6.537 ± 0.46
17.23 K	8.219 ± 0.57
19.12 K	10.17 ± 0.71
21.21 K	12.39 ± 0.5
23.54 K	14.97 ± 0.61
26.1 K	17.79 ± 0.72
28.96 K	20.88 ± 0.85
32.16 K	24.14 ± 0.98
35.67 K	27.61 ± 1.1
39.58 K	31.21 ± 1.3
43.9 K	34.8 ± 1.4
48.73 K	38.39 ± 1.6
54.07 K	42.02 ± 1.7
60 K	45.71 ± 1.9
66.57 K	49.33 ± 2
73.89 K	52.81 ± 2.1
82 K	56.69 ± 2.3
91.01 K	60.28 ± 2.4
100.97 K	63.46 ± 2.6
111.11 K	67.66 ± 2.7
121.2 K	71.28 ± 2.9
131.23 K	75.08 ± 3
141.33 K	78.93 ± 3.2
151.47 K	82.66 ± 3.4
161.56 K	86.28 ± 3.5
171.65 K	90.21 ± 3.7
181.75 K	94.38 ± 3.8
191.83 K	98.14 ± 4
201.92 K	101.91 ± 4.1
212.02 K	106.35 ± 4.3
222.12 K	110.99 ± 4.5
232.21 K	115.4 ± 4.7
242.21 K	119.97 ± 4.9
252.4 K	124.67 ± 5.1
262.46 K	128.8 ± 5.2
272.51 K	133.51 ± 5.4
282.55 K	138.2 ± 5.6
292.7 K	141.62 ± 5.8
302.71 K	144.34 ± 5.9

[Cu] [copper]
Conditions	molar heat capacity at constant pressure [J/K/mol]
1.93 K	0.001713 ± 0.00012
2.15 K	0.002021 ± 0.00014
2.39 K	0.002319 ± 0.00017
2.65 K	0.002809 ± 0.0002
2.95 K	0.003326 ± 0.00024
3.28 K	0.003967 ± 0.00028
3.64 K	0.004911 ± 0.00035
4.04 K	0.005973 ± 0.00042
4.48 K	0.007493 ± 0.00053
4.97 K	0.009444 ± 0.00066
5.51 K	0.01204 ± 0.00085
6.11 K	0.01543 ± 0.0011
6.78 K	0.0199 ± 0.0014
7.52 K	0.02598 ± 0.0018
8.33 K	0.03421 ± 0.0024
9.24 K	0.04517 ± 0.0032
10.25 K	0.06013 ± 0.0042
11.34 K	0.08043 ± 0.0056
12.58 K	0.1091 ± 0.0076
13.96 K	0.149 ± 0.01
15.48 K	0.2052 ± 0.014
17.18 K	0.2844 ± 0.02
19.06 K	0.3981 ± 0.028
21.16 K	0.5588 ± 0.023
23.49 K	0.7857 ± 0.032
26.06 K	1.094 ± 0.044
28.95 K	1.514 ± 0.062
32.07 K	2.062 ± 0.084
35.61 K	2.768 ± 0.11
39.52 K	3.635 ± 0.15
43.85 K	4.662 ± 0.19
48.66 K	5.846 ± 0.24
54.01 K	7.178 ± 0.29
59.94 K	8.631 ± 0.35
66.51 K	10.16 ± 0.41
73.83 K	11.68 ± 0.47
81.93 K	13.27 ± 0.54
90.94 K	14.71 ± 0.6
100.89 K	16.04 ± 0.65
111.02 K	17.3 ± 0.7
121.12 K	18.35 ± 0.74
131.2 K	19.24 ± 0.78
141.26 K	19.93 ± 0.81
151.41 K	20.52 ± 0.83
161.51 K	21.05 ± 0.85
171.6 K	21.5 ± 0.87
181.69 K	21.94 ± 0.89
191.78 K	22.25 ± 0.9
201.87 K	22.55 ± 0.92
212 K	22.82 ± 0.93
222.11 K	23.11 ± 0.94
232.19 K	23.37 ± 0.95
242.21 K	23.57 ± 0.96
252.34 K	23.79 ± 0.97
262.41 K	23.94 ± 0.97
272.42 K	24.1 ± 0.98
282.6 K	24.3 ± 0.99
292.63 K	24.41 ± 0.99
297.94 K	24.49 ± 0.99
302.69 K	24.51 ± 1
302.72 K	24.54 ± 1
307.82 K	24.55 ± 1
312.89 K	24.59 ± 1
317.83 K	24.7 ± 1
322.91 K	24.68 ± 1
328.03 K	24.79 ± 1
333.05 K	24.87 ± 1
338.06 K	24.81 ± 1
343.13 K	24.9 ± 1
348.29 K	25.01 ± 1
353.34 K	25.13 ± 1
358.42 K	25.09 ± 1
363.5 K	25.13 ± 1
368.53 K	25.23 ± 1
373.56 K	25.3 ± 1
378.59 K	25.4 ± 1
383.61 K	25.45 ± 1
388.61 K	25.48 ± 1
393.64 K	25.58 ± 1
398.65 K	25.68 ± 1
